Nine molecules from patent publication US9073916B2, “Prodrug forms of kinase inhibitors and their use in therapy” (AUCKLAND UNISERVICES LIMITED, priority 2009, dated 2015) can be followed below.

The test system of data set [1] is H1975 cells. Kind of data set: Cellular growth inhibition (sulforhodamine B). It is filed as cell-based, Human. The following applies: Table 7.
Method: (§1) Human A431, BT474, SKBR3, SKOV3, SW620, H1975 and HT29 carcinoma cells in log phase exponential growth in alpha minimal essential media (αMEM) containing 5% fetal bovine serum (FBS), were harvested by trypsinisation (1× trypsin/EDTA, Gibco Brl), counted, and seeded into 96 well plates (Nunc) at cell densities ranging from 800-1500 cells/well. Half of the cell samples were seeded into plates that were pre-equilibrated and held in an anoxic environment (90% N2, 5% H2, 5% CO2, 37° Q Anaerobic chamber, Coy Laboratory Products). […] At the end of this period the anoxic plates were recovered from the anaerobic camber and held under normoxia in a standard CO2 incubator (37° C.) for 20 hours. All plates were washed free of compound and cells were allowed to proliferate for a further 4 days in αMEM containing 5% FBS+antibiotics. Cells were fixed in trichloroacteic acid (30 min), washed and stained with sulforhodamine B (SRB, 60 min) prior to washing in acidified water. SRB was solubilised and absorption read at 450 nm to calculate cell densities. Inhibition of proliferation was calculated relative to untreated control wells.
(§2) Human A431, H1975 and SKOV3 carcinoma cells in log phase exponential growth in alpha minimal essential media (αMEM) containing 5% fetal bovine serum (FBS), were harvested by trypsinisation (1× trypsin/EDTA, Gibco Brl), counted, and seeded into 96 well plates (Nunc) at cell densities ranging from 800-1500 cells/well. Half of the cell samples were seeded into plates that were pre-equilibrated and held in an anoxic environment (90% N2, 5% H2, 5% CO2, 37° C.; Anaerobic chamber, Coy Laboratory Products). […] At the end of this period the anoxic plates were recovered from the anaerobic camber and held under normoxia in a standard CO2 incubator (37° C.) for 20 hours. All plates were washed free of compound and cells were allowed to proliferate for a further 4 days in αMEM containing 5% FBS+antibiotics. Cells were fixed in trichloroacteic acid (30 min), washed and stained with sulforhodamine B (SRB, 60 min) prior to washing in acidified water. SRB was solubilised and absorption read at 450 nm to calculate cell densities. Inhibition of proliferation was calculated relative to untreated control wells.
They were then washed free of drug and incubated for a further 4 days, before being stained for cell survival with sulforhodamine B.
In data set [2] the test system is HT29 cells. Put plainly: Cellular growth inhibition (sulforhodamine B). The following applies: Table 7. It is filed as cell-based, Human.
Method: as §1
A short description of data set [3]: Steady state radiolytic reduction by the CO2.− radical with HPLC-MS. Format: physicochemical. The following applies: for Detection of MNA (methyl nitroaromatic) / release of effector following 1-electron reduction: HPLC-MS; for % Loss of prodrug: HPLC-MS at 0.95 reducing equivalents; for release of effector following 1-electron reduction: steady state radiolysis.

Data set [4] in a line: Pulse radiolysis (E(1) and fragmentation rate). It is filed as physicochemical. The following applies: for kfrag. (fragmentation rate constant upon 1-electron reduction): benzyl-type radical formation; for E (1)/V (one-electron reduction potential): determined against methylviologen. As to the method: Pulse radiolysis was used to monitor the 1-electron reduction and stability of the compounds in real time. A linear accelerator delivering short pulses of high energy electrons (2-3 Gy in 200 ns of 4 MeV) equipped with a fast spectophotometric detection system was used. (Anderson et al, J. Phys. Chem. A, 101, 9704-9709, 1997). […] The rate of fragmentation was determined by analysing kinetic transients at wavelengths corresponding to the formation of the benzyl-type radical of the trigger moiety. (Bays et al, J. Am. Chem. Soc., 105, 320-324, 1983; Anderson et al, J. Phys. Chem. A, 101, 9704-9709, 1997).
The pulse radiolysis method, for example, measures the equilibrium constant between the radical anions of the prodrugs, formed upon their 1-electron reduction, and reference standards such as viologen and quinone compounds, from which data the E(1) values of the compounds can be calculated. (Meisel and Czapski. J. Phys. Chem., 1975, 79, 1503-1509.) The E(1) values of prodrugs 17-22, 140-145 were measured by the pulse radiolysis method and determined to range between −0.493V and −0.388V (Table 4).
The rate constants for fragmentation, kfrag, of the 1-electron reduced prodrugs can be measured using pulse radiolysis to observe the time-resolved formation of the absorption spectrum of the benzyl-type radical produced upon fragmentation of the radical anion. (Anderson et al, J. Phys. Chem. A, 1997, 101, 9704-9709.) The kfrag values of prodrugs 19, 20, 140, 141 and 143-145 were measured by pulse radiolysis and are presented in Table 4.
Pulse radiolysis was used to monitor the one-electron reduction and stability of prodrug 42 in real time. A linear accelerator delivering short pulses of high energy electrons (2-3 Gy in 200 ns of 4 MeV) equipped with a fast spectophotometric detection system was used. […] The rate of fragmentation was determined by analysing kinetic transients at wavelengths corresponding to the formation of the benzyl-type radical of the trigger moiety. (Bays et al, J. Am. Chem. Soc., 105, 320-324, 1983; Anderson et al, J. Phys. Chem. A, 101, 9704-9709, 1997.)

Data set [5] concerns A431 cells. Kind of data set: Cellular growth inhibition (sulforhodamine B).
Method: as §1, §2
The test system of data set [6] is SKBR3 cells. Put plainly: Cellular growth inhibition (sulforhodamine B). Format: cell-based, Human. The following applies: Table 3; for IC50: Homo sapiens, SK-BR-3.
Data set [7] deals with SW620 cells. Kind of data set: Cellular growth inhibition (sulforhodamine B). The note with it: Table 3; for IC50: Homo sapiens, SW-620. It is filed as cell-based, Human.
Method: as §1
In data set [8] the target is erbB1 (Homo sapiens, UniProt P00533). Put plainly: Inhibition of erbB1 autophosphorylation in EGF-stimulated intact A431 cells (Western blot).
Chain of erbB1 (P00533 25-1210): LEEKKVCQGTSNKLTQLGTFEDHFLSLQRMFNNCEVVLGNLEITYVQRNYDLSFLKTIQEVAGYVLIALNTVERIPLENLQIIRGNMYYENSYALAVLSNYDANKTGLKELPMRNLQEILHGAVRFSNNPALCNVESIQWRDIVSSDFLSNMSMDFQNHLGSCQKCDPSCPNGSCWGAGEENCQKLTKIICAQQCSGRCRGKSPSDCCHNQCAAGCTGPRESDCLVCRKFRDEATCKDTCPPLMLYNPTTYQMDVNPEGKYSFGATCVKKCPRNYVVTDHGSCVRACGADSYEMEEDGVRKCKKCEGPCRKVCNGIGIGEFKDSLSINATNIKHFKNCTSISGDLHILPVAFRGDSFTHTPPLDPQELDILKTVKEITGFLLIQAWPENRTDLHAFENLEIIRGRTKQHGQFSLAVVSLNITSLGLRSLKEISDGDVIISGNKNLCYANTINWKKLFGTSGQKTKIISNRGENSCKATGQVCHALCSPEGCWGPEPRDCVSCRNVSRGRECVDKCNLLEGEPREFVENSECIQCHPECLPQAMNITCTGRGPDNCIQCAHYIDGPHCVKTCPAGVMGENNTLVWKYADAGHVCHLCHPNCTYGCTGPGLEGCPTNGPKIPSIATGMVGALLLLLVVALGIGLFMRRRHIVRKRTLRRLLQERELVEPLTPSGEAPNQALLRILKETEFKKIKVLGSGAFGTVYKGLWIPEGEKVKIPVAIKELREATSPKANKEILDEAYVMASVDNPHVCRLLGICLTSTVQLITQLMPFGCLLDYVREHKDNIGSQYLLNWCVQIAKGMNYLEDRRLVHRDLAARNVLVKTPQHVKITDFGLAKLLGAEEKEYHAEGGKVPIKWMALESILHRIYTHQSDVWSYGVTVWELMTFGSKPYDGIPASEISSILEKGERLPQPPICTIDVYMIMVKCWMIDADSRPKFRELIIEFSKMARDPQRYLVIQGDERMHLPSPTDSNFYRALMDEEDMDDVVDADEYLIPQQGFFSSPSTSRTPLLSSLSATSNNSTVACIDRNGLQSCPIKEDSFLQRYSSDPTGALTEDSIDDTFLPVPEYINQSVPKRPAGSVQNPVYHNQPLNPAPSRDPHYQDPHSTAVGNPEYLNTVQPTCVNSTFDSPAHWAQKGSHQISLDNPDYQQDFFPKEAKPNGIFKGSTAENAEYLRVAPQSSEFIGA
Where [9] appears, read: 24 hour exposure oxic, read-out: Cellular Growth Inhibition IC50 H1975 Oxic.
Setting [10] is: initial 4 hours anoxic, read-out: Cellular Growth Inhibition IC50 H1975 Anoxic.
The mark [11] stands for this setting: 24 hour exposure oxic, read-out: Cellular Growth Inhibition IC50 HT29 Oxic.
Setting [12] is: initial 4 hours anoxic, read-out: Cellular Growth Inhibition IC50 HT29 Anoxic.
The mark [13] stands for this setting: read-out: Cellular Growth Inhibition IC50 A431 Anoxic, Table 7, initial 4 hours anoxic.
Where [14] appears, read: read-out: Cellular Growth Inhibition IC50 A431 Oxic, Table 7, 24 hour exposure oxic.
Where [15] appears, read: 24 hour exposure entirely oxic, read-out: Cellular Growth Inhibition IC50 SKBR3 Oxic.
Where [16] appears, read: first 4 hours anoxic, read-out: Cellular Growth Inhibition IC50 SKBR3 Anoxic.
[17] abbreviates: 24 hour exposure entirely oxic, read-out: Cellular Growth Inhibition IC50 SW620 Oxic.
Setting [18] is: first 4 hours anoxic, read-out: Cellular Growth Inhibition IC50 SW620 Anoxic.
[19] abbreviates: Homo sapiens, A-431, 24 h, read-out: Cellular Growth Inhibition IC50 A431 Oxic.
Setting [20] is: Homo sapiens, A-431, read-out: Cellular Growth Inhibition IC50 A431 Anoxic.

Where a name gives a salt, the structure may show the parent alone. Read-outs that look alike come from different tables or passages of the source.

As for `CC[N+](CC)(CCNC(=O)c1c(C)[nH]c(/C=C2\C(=O)Nc3ccc(F)cc32)c1C)Cc1c([N+](=O)[O-])ncn1C.O=C([O-])C(F)(F)F` [Compound 144, N,N-diethyl-2-[({5-[(Z)-(5-fluoro-2-oxo-1,2-dihydro-3H-indol-3-ylidene)methyl]-2,4-dimethyl-1H-pyrrol-3-yl}carbonyl)amino]-N-[(1-methyl-4-nitro-1H-imidazol-5-yl)methyl]ethanammonium trifluoroacetate], the “H1975 HCR” value in data set [1] was 3 fold. For the same molecule, the IC50 was found to be 203000 nM in data set [1] (setting [9]); 57200 nM in [1] (setting [10]); 298000 nM in data set [2] (setting [11]); 10700 nM in data set [2] (setting [12]); 24100 nM in data set [5] (setting [13]); 146000 nM in [5] (setting [14]). The “HT29 HCR” value in data set [2] was found to be 31 fold. Also, the “Detection of MNA (methyl nitroaromatic)” value in data set [3] was “Yes”. Besides, in [3], the “% Loss of prodrug” value was 68%. Besides, the “release of effector following 1-electron reduction” value in data set [3] is “released their respective effector compounds”. In addition, in [4], the “kfrag. (fragmentation rate constant upon 1-electron reduction)” value is 470 ± 20 s⁻¹. For the same molecule, the “E (1)/V (one-electron reduction potential)” value in [4] was −0.449 V. For the same molecule, the “A431 HCR” value in data set [5] (Table 7) was found to be 7 fold.
For `CC[N+](CC)(CCOc1ccc(Nc2ncc3cc(-c4c(Cl)cccc4Cl)c(=O)n(C)c3n2)cc1)Cc1c([N+](=O)[O-])ncn1C.[Br-]` [Compound 140, 2-(4-{[6-(2,6-dichlorophenyl)-8-methyl-7-oxo-7,8-dihydropyrido[2,3-d]pyrimidin-2-yl]amino}phenoxy)-N,N-diethyl-N-[(1-methyl-4-nitro-1H-imidazol-5-yl)methyl]ethanammonium bromide], in data set [1], the “H1975 HCR” value was found to be 13 fold. Moreover, the IC50 in data set [1] (setting [9]) stood at 4700 nM; in [1] (setting [10]) it was 430 nM; in data set [2] (setting [11]), 4600 nM; in [2] (setting [12]), 310 nM; in data set [5] (setting [13]), 510 nM; in data set [5] (setting [14]), 7900 nM. Besides, the “HT29 HCR” value in data set [2] is reported as 15 fold. Further, in data set [3], the “Detection of MNA (methyl nitroaromatic)” value is recorded as “Yes”. In addition, in data set [3], the “% Loss of prodrug” value is given as 92%. Moreover, the “release of effector following 1-electron reduction” value in data set [3] is “released their respective effector compounds”. Moreover, the “kfrag. (fragmentation rate constant upon 1-electron reduction)” value in data set [4] worked out at 310 ± 20 s⁻¹. The “E (1)/V (one-electron reduction potential)” value in [4] is listed as −0.429 V. In addition, in [5] (Table 7), the “A431 HCR” value turned out to be 15 fold.
Regarding `CC[N+](CC)(CCOc1ccc(Nc2ncc3cc(-c4c(Cl)cccc4Cl)c(=O)n(C)c3n2)cc1)Cc1c([N+](=O)[O-])nc(C)n1C.[Br-]` [Compound 141, 2-(4-{[6-(2,6-dichlorophenyl)-8-methyl-7-oxo-7,8-dihydropyrido[2,3-d]pyrimidin-2-yl]amino}phenoxy)-N-[(1,2-dimethyl-4-nitro-1H-imidazol-5-yl)methyl]N,N-diethylethanammonium bromide], the “H1975 HCR” value in [1] was 18 fold. For the same molecule, the IC50 in [1] (setting [9]) came to 6100 nM; in data set [1] (setting [10]) it was 370 nM; in data set [2] (setting [11]), 5600 nM; in [2] (setting [12]) it was 320 nM; in [5] (setting [13]), 440 nM; in [5] (setting [14]) it was 12300 nM. Besides, the “HT29 HCR” value in data set [2] came to 18 fold. Besides, the “Detection of MNA (methyl nitroaromatic)” value in [3] is “Yes”. For the same molecule, the “% Loss of prodrug” value in data set [3] was found to be 83%. Also, the “kfrag. (fragmentation rate constant upon 1-electron reduction)” value in [4] turned out to be 1100 ± 100 s⁻¹. In addition, the “E (1)/V (one-electron reduction potential)” value in [4] is −0.456 V. In addition, the “A431 HCR” value in data set [5] (Table 7) was determined as 30 fold.
With `Cn1cnc([N+](=O)[O-])c1C[N+]1(C/C=C/C(=O)Nc2ccc3ncnc(Nc4cccc(Br)c4)c3c2)CCCCC1.[Br-]` [Compound 23, 1-((2E)-4-{[4-(3-bromoanilino)-6-quinazolinyl]amino}-4-oxo-2-butenyl)-1-[(1-methyl-4-nitro-1H-imidazol-5-yl)methyl]piperidinium bromide], the melting point was 188 °C (dec.). The IC50 in [6] (setting [15]) stood at 2470 nM. For the same molecule, the IC50 in data set [6] (setting [16]) was determined as 68 nM. Besides, in data set [6], the “SKBR3 Deact.” value stood at 56 fold and the “SKBR3 HCR” value was determined as 36.1 fold. In addition, in data set [7] (setting [17]), the IC50 came out at 101000 nM. Also, the IC50 in data set [7] (setting [18]) came out at 13800 nM. In data set [7], the “SW620 Deact.” value amounted to 27 fold and the “SW620 HCR” value is 7.3 fold. In [4], the “kfrag. (fragmentation rate constant upon 1-electron reduction)” value turned out to be 420 ± 60 s⁻¹ and the “E (1)/V (one-electron reduction potential)” value was −0.427 V. Also, the IC50 in data set [5] (setting [19]) was 670 nM. In data set [5] (setting [20]), the IC50 was found to be 25 nM. Moreover, in data set [5] (Table 3), the “A431 Deact. (fold reduction in oxic growth inhibition relative to parent kinase inhibitor)” value is recorded as 65 fold and the “A431 HCR (Hypoxic Cytotoxicity Ratio)” value is recorded as 26.9 fold. This molecule showed an IC50 in data set [8] of 1200 nM. Moreover, the “Deact. (fold reduction in cellular erbB1 inhibition relative to the parent kinase inhibitor)” value in data set [8] (Table 2, A431 cells) was 27 fold.
With `Cn1cnc([N+](=O)[O-])c1C[N+](C)(C)CCCC(=O)Nc1ccc2ncnc(Nc3cccc(Br)c3)c2c1` (as salt: bromide) [Compound 27, 4-{([4-(3-bromoanilino)-6-quinazolinyl]amino}-N,N-dimethyl-N-[(1-methyl-4-nitro-1H-imidazol-5-yl)methyl]-4-oxo-1-butanaminium bromide], the melting point is 177 °C (dec.).
The same measure, in the same setting: to `Cn1cnc([N+](=O)[O-])c1C[N+]1(C/C=C/C(=O)Nc2ccc3ncnc(Nc4cccc(Br)c4)c3c2)CCOCC1.O=C[O-]` belongs 125 to 129 °C.
Molecule `C[N+](C)(C/C=C/C(=O)Nc1ccc2ncnc(Nc3cccc(Br)c3)c2c1)Cc1ccccc1[N+](=O)[O-]` (as salt: bromide) [Compound 18, (2E)-4-{[4-(3-bromoanilino)-6-quinazolinyl]amino}-N,N-dimethyl-N-(2-nitrobenzyl)-4-oxo-2-buten-1-ammonium bromide] had a melting point of 166 to 169 °C.
The molecule `COc1cc2ncnc(Nc3ccc(F)c(Cl)c3)c2cc1NC(=O)/C=C/CN(C)C` [Compound 14, (2E)-N-[4-(3-chloro-4-fluoroanilino)-7-methoxy-6-quinazolinyl]-4-(dimethylamino)-2-butenamide] registered a melting point of 179 to 181 °C. Also, the IC50 in [6] (setting [15]) amounted to 28 nM. In addition, in [6] (setting [16]), the IC50 was determined as 27 nM. In addition, the “SKBR3 HCR” value in data set [6] is on record as 1.1 fold. For the same molecule, the IC50 in [7] (setting [17]) turned out to be 2020 nM. The IC50 in [7] (setting [18]) amounted to 2460 nM. For the same molecule, the “SW620 HCR” value in data set [7] came to 0.8 fold. The IC50 in data set [5] (setting [19]) worked out at 15 nM. The IC50 in data set [5] (setting [20]) worked out at 9 nM. Moreover, in [5] (Table 3), the “A431 HCR (Hypoxic Cytotoxicity Ratio)” value was determined as 1.7 fold.
Take `C[N+](C)(C/C=C/C(=O)Nc1ccc2ncnc(Nc3cccc(Br)c3)c2c1)Cc1ccc([N+](=O)[O-])cc1` (as salt: bromide) [Compound 17, (2E)-4-{[4-(3-bromoanilino)-6-quinazolinyl]amino}-N,N-dimethyl-N-(4-nitrobenzyl)-4-oxo-2-buten-1-ammonium bromide]: the melting point was in the range of 178 to 181 °C.
